According to ChEMBL document CHEMBL5528085, “Subtle Structural Changes across the Boundary between A2AR/A2BR Dual Antagonism and A2BR Antagonism: A Novel Class of 2-Aminopyrimidine-Based Derivatives” (J Med Chem, 2024):

What was measured:
Adenosine receptor A2a = Adenosine receptor A2a (Homo sapiens, UniProt P29274); assay: Antagonist activity at human adenosine 2A receptor overexpressed in HEK293 cells preincubated for 0.5 hrs followed by NECA stimulation by GloSensor cAMP assay; assay type: functional, cell-based
Adenosine receptor A2b = target: T1, Adenosine receptor A2b (Homo sapiens, UniProt P29275); assay: Antagonist activity at human adenosine 2B receptor overexpressed in HEK293 cells preincubated for 0.5 hrs followed by NECA stimulation by GloSensor cAMP assay; assay type: functional, cell-based
T1 sequence (P29275 whole entry): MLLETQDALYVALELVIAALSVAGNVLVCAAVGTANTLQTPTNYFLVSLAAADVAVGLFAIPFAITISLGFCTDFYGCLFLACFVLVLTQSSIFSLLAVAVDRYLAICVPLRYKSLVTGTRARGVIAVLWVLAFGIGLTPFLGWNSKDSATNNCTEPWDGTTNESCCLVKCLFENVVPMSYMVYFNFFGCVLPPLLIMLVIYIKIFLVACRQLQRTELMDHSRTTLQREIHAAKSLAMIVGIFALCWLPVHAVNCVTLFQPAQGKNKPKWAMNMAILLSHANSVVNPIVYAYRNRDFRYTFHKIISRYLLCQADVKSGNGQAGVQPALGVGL

Homo sapiens = species: Homo sapiens; assay: Selectivity ratio of IC50 for antagonist activity at human adenosine 2A receptor overexpressed in HEK293 cells to IC50 for antagonist activity at human adenosine 2B receptor overexpressed in HEK293 cells; assay type: cell-based

Chain of Adenosine receptor A2a (P29274 whole entry): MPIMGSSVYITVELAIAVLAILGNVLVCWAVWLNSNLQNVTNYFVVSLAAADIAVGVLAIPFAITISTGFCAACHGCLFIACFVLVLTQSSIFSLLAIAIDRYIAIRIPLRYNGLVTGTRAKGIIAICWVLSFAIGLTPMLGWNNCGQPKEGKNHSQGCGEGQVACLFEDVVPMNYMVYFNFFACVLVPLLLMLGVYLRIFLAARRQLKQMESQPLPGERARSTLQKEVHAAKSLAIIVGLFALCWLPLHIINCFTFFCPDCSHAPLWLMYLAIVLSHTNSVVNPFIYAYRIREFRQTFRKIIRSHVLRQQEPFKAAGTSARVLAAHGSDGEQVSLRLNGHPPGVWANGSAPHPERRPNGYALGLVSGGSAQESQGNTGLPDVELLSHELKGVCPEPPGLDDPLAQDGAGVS

SMILES | IC50 (Adenosine receptor A2a) [µM] | IC50 (Adenosine receptor A2b) [µM] | Ratio IC50 (Homo sapiens)
Cc1c(C#N)cccc1-c1cc(-c2cn(Cc3csc4c3CCCC4)nn2)nc(N)n1 | 0.0116 | 0.101 | 0.1
Cc1c(C#N)cccc1-c1cc(-c2cn(Cc3c[nH]c4cc(C#N)ccc34)nn2)nc(N)n1 | 0.242 | 0.0026 | 93.2
Cc1c(C#N)cccc1-c1cc(-c2cn(Cc3c[nH]c4ccccc34)nn2)nc(N)n1 | 0.112 | 0.0438 | 2.6
Cc1c(C#N)cccc1-c1cc(-c2cn(Cc3c[nH]c4c(Cl)cccc34)nn2)nc(N)n1 | 1.14 | 1.08 | 1.1
COC(=O)c1ccc2c(Cn3cc(-c4cc(-c5cccc(C#N)c5C)nc(N)n4)nn3)c[nH]c2c1 | > 100 | 0.0977 | –
Cc1c(C#N)cccc1-c1cc(-c2cn(Cc3c[nH]c4ccc(S(C)(=O)=O)cc34)nn2)nc(N)n1 | 0.0183 | 0.0097 | 1.9
Cc1c(C#N)cccc1-c1cc(-c2cn(Cc3c[nH]c4cc(OC(C)C)ccc34)nn2)nc(N)n1 | 3.85 | 0.0306 | 126
Cc1c(C#N)cccc1-c1cc(-c2cn(Cc3c[nH]c4ccncc34)nn2)nc(N)n1 | 0.169 | 0.0116 | 14.6
COc1ccc2c(Cn3cc(-c4cc(-c5cccc(C#N)c5C)nc(N)n4)nn3)c[nH]c2c1 | 0.133 | 0.0276 | 4.8
COc1ccc2[nH]cc(Cn3cc(-c4cc(-c5cccc(C#N)c5C)nc(N)n4)nn3)c2c1 | – | 0.0447 | –
Cc1c(C#N)cccc1-c1cc(-c2cn(Cc3cccc4[nH]ccc34)nn2)nc(N)n1 | 5.82 | > 100 | –
COC(=O)c1ccc2[nH]cc(Cn3cc(-c4cc(-c5cccc(C#N)c5C)nc(N)n4)nn3)c2c1 | 0.0702 | 0.0382 | 1.8
Cc1c(C#N)cccc1-c1cc(-c2cn(Cc3c[nH]c4cc(Cl)c(Cl)cc34)nn2)nc(N)n1 | 6.32 | 0.209 | 30.2
Cc1c(C#N)cccc1-c1cc(-c2cn(Cc3c[nH]c4ccc(F)cc34)nn2)nc(N)n1 | 0.0633 | 0.0143 | 4.4
Cc1c(C#N)cccc1-c1cc(-c2cn(Cc3c[nH]c4ccc(OC5CCCC5)cc34)nn2)nc(N)n1 | 0.0974 | 0.349 | 0.3
Cc1c(C#N)cccc1-c1cc(-c2cn(Cc3c[nH]c4ccc(Cl)cc34)nn2)nc(N)n1 | 0.244 | 0.0454 | 5.4
Cc1c(C#N)cccc1-c1cc(-c2cn(Cc3c[nH]c4ccc(OC(C)C)cc34)nn2)nc(N)n1 | 0.0699 | 0.103 | 0.7
Cc1c(C#N)cccc1-c1cc(-c2cn(Cc3c[nH]c4cnccc34)nn2)nc(N)n1 | 1.91 | 0.0111 | 172
Cc1c(C#N)cccc1-c1cc(-c2cn(Cc3c[nH]c4cc(OC5CCCC5)ccc34)nn2)nc(N)n1 | – | 0.0716 | –
